Literature values in patent US20150164065A1, “ORGAN ARREST, PROTECTION, PRESERVATION AND RECOVERY” (priority 2002, published 2015).

How the values were obtained:
NK(3) receptor = biological target: T1, NK(3) receptor (Homo sapiens, UniProt P29371); settings: relative to NK(1) receptor
T1 sequence (P29371 1-465): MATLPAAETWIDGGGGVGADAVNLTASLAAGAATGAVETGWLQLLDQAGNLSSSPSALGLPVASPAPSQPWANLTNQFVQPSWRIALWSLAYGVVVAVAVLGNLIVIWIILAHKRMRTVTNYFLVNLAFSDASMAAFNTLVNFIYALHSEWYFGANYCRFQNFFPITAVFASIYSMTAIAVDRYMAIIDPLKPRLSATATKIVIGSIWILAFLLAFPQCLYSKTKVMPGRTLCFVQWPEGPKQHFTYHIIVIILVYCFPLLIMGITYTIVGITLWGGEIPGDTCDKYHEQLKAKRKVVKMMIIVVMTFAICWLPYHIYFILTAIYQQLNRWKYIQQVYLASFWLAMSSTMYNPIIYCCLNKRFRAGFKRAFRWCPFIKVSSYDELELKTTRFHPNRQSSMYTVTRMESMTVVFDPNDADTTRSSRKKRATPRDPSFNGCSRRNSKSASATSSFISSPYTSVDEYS

NK(2) receptor = biological target: T2, NK(2) receptor (Homo sapiens, UniProt P21452); settings: relative to NK(1) receptor
T2 sequence (P21452 1-398): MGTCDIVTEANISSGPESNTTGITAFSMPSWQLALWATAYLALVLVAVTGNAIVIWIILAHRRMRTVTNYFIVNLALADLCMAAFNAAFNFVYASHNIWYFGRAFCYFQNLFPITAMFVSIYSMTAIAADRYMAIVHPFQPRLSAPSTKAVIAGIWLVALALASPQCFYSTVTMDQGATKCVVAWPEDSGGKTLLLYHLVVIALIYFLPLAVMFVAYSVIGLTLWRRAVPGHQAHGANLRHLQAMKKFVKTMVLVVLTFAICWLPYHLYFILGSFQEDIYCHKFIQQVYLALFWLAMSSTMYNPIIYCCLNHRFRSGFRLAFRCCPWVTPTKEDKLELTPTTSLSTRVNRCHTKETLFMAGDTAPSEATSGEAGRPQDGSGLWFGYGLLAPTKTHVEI

human NK(1) receptor = human NK(1) receptor (Homo sapiens, UniProt P25103)
Sequence of human NK(1) receptor (P25103 whole entry): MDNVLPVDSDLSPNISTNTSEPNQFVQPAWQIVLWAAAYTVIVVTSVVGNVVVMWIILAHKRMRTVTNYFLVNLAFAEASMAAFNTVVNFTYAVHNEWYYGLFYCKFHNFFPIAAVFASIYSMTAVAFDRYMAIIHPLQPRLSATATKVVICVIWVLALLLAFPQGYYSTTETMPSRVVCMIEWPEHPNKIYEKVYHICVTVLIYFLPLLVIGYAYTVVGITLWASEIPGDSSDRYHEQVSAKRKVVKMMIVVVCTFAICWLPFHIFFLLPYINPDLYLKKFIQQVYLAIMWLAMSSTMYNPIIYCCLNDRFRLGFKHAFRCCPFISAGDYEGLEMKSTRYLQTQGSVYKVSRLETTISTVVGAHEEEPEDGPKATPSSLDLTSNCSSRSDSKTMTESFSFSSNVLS

selectivity toward NK(3) receptor (NK(3) receptor)	selectivity toward NK(2) receptor (NK(2) receptor)	Ki (human NK(1) receptor) [nM]	SMILES	ischemia-induced cell swelling (isolated brain slices)
over 200 fold	over 200 fold	0.45	Cc1cccc(C)c1NC(=O)C[C@H]1CCN(C(=O)c2cc(C(F)(F)F)cc(C(F)(F)F)c2)[C@@H](Cc2ccccc2)C1.O=C(O)C[C@H](O)C(=O)O (relative stereo) [Example R116301, (2R-trans)-4-[1-[3,5-bis(trifluoromethyl)benzoyl]-2-(phenylmethyl)-4-piperidinyl]-N-(2,6-dimethylphenyl)-1-acetamide (S)-Hydroxybutanedioate]	
			CC1(C)CC(O)CC(C)(C)N1[O] [tempol(R)]	reduction of cell swelling
			CNC(=S)NC [dimethylthiourea]	reduction of cell swelling
			Cc1c(C)c2c(c(C)c1O)CC[C@](C)(C(=O)O)O2 [Trolox(R)]	reduction of cell swelling
